According to patent US12365710B2, “HMGB1 protein derivatives for the removal of biofilms” (RESEARCH INSTITUTE AT NATIONWIDE CHILDREN'S HOSPITAL, priority 2018, dated 2025):

What was measured:
NTHI biofilm = experiment: in vitro disruption of established biofilms, CLSM and COMSTAT; format: cell-based, Nontypeable Haemophilus influenzae; conditions: 200 nM added at 24 h, 16 h exposure
Description: (§1) FIGS. 5A-5E: Anti-biofilm effect of HMGB1 variants on high priority bacterial pathogens. Indicated HMGB1 variants or antibodies against DNABII proteins (α-1HFEc 1gG, 1 μM) were added at 24 h to the respective preformed bacterial biofilms, in vitro. After 16 h of Incubation, biofilms were stained with LIVE/DEAD®, then visualized via confocal laser scanning microscopy. Images were analyzed by COMSTAT to calculate average thickness and comparison to control was plotted. (FIG. 5A) Full-length HMGB1 isoforms (200 nM unless otherwise indicated) added to UPEC, B. cenocepacia, NTHI, or ESKAPE pathogens. 800 nM rHMGB1 and 200 nM mHMGB1 were added for S. aureus (ESKAPE). 800 nM rHMGB1, 800 nM mHMGB1, or 3.3 μM of α-1HFEc 1gG were added for E. faecium (ESKAPE) and were incubated for 1 h as opposed to 16 h to avoid potential degradation by E. faecium proteases. (FIG. 5B) Representative images of UPEC biofilms incubated with increasing concentrations of rHMGB1. (FIG. 5C) Individual domains of HMGB1 (200 nM) were tested for anti-biofilm activity as above (dotted line indicates control values). Bars represent the SEM. Statistical significance compared to control was assessed with unpaired t-tests, *P<0.05. […] (FIGS. 5D-5E) HMGB1 and variants disrupt preformed Klebsiella pneumoniae biofilms. rHMGB1, HMGB1 C45S (mHMGB1), bovine HMGB1 (bHMGB1), B box, B Box C106S (mB Box), A Box, and A+B Box were added (200 nM) at 24 h to preformed K. pneumoniae biofilms. After 16 h of incubation, biofilms were stained with LIVE/DEAD®, then visualized via confocal laser scanning microscopy. Images were analyzed by COMSTAT to calculate average thickness and total biomass. Error bars represent the SEM. ***P<0.0001; ns=not significant.
(§2) HMGB1 disrupts pathogenic biofilms: To test the effect of HMGB1 on bacterial biofilms (FIG. 5), Applicant cloned (IMPACT®, NEB Ipswich, MA), expressed (in E. coli), and purified (heparin sepharose chromatography to >95% purity) tagless human recombinant HMGB1 (rHMGB1) and an engineered C45 S variant (mHMGB1) that mimics the reduced form of HMGB1. rHMGB1 readily forms an intramolecular disulfide bond between C23 and C45 that contributes to pro-inflammatory activity whereas mHMGB1 cannot. These HMGB1 isoforms were evaluated for ability to disrupt established biofilms (formed for 24 h prior to addition). After a 16 h exposure to a single dose of rHMGB1 (200 nM; ˜25-fold greater than typical sepsis serum concentration, but not able to directly induce sepsis), biofilms formed by a wide variety of high priority species were stained with LIVE/DEAD®, analyzed using confocal laser scanning microscopy (CLSM) and COMSTAT analysis and compared to control biofilms. […] Preliminary analysis of PTMs by LC-MS/MS analysis (MS Bioworks, LLC Ann Arbor, MI) indicated minimal modification of both rHMGB1 and nHMGB1 (<20% of the observed peptides had any given PTM, FIG. 1C). […] Thus, while there are intrinsic differences in sensitivity among pathogens, the biofilms formed by all of the tested high priority pathogens were susceptible to a single dose of these non-antimicrobial compounds.
HMGB1 domain structure and anti-biofilm activity: Applicant then produced recombinant HMGB1 truncation variants, of 1) the A Box, a self-contained DNA-binding domain (residues 1-89); 2) an A-B Boxes construct (lacks the C tail; residues 1-185); and 3) the B Box (residues 80 to 176, FIGS. 1A and 1C). […]

UPEC biofilm = experiment: as above; format: cell-based, Uropathogenic E. coli; conditions: for disruption of established UPEC biofilms: added at 24 h, 16 h exposure, 200 nM unless stated
Description: as §1, §2
HMGB1 domain structure and anti-biofilm activity: Applicant then produced recombinant HMGB1 truncation variants, of 1) the A Box, a self-contained DNA-binding domain (residues 1-89); 2) an A-B Boxes construct (lacks the C tail; residues 1-185); and 3) the B Box (residues 80 to 176, FIGS. 1A and 1C). […] Since only the B Box can modulate DNA bending, without being bound by theory, it was hypothesized that HMGB1 disrupts biofilms at least in part via DNA-binding/bending. As the B Box is reported to contain pro-inflammatory activity, mediated primarily through interactions with TLR4-MD2 that are dependent on residue C106, Applicant created a modified B Box variant (mB Box) with a C106S mutation (FIGS. 1A and 1C).

Molecule	disruption of established NTHI biofilms (NTHI biofilm)	disruption of established UPEC biofilms (UPEC biofilm)	average thickness of UPEC biofilm (UPEC biofilm; progressively higher concentrations of rHMGB1, up to 400 nM, monolayer) [μm]
rHMGB1: tagless human recombinant full length HMGB1 (1-215) expressed in E. coli	not as responsive	disrupted a UPEC biofilm in a dose-dependent manner	~1
B-linker Box: HMGB1 B Box with N- and C-terminal linker (80-179; 80 to 176 in b258), 97 amino acid (protein, UniProt P09429 80-179, looked up, fragment) PPKGETKKKFKDPNAPKRPPSAFFLFCSEYRPKIKGEHPGLSIGDVAKKLGEMWNNTAADDKQPYEKKAAKLKEKYEKDIAAYRAKGKPDAAKKGVVKAE	retained full anti-biofilm activity	retained full anti-biofilm activity	–
